Where two headings read alike, the source gives them in different places.
Target: T1, REV-ERBα LBD (human; residues 281-614 Δ324-422) (Homo sapiens, UniProt P20393, DEL324-422)
T1 construct: 6×Histag-REV-ERBα LBD (human; residues 281-614 Δ324-422); made in house; host or cells: Escherichia coli
Assay: TR-FRET corepressor interaction assay (REV-ERBα LBD, FITC-SMRT peptide)
Format: biochemical
Method in brief: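 Compound serial dilutions (in DMSO, triplicate) incubated 2 h at 4 °C; Tb donor excited at 340 nm, emission read at 495 nm and FITC acceptor at 520 nm. TR-FRET ratio (520/495 nm) plotted against ligand concentration and fitted to a sigmoidal dose-response curve.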

[1] = Table 2, read-out: REVERBα agonism (EC50 class, FRET assay)
[2] = FITC-SMRT peptide, read-out: REVERBα agonism (EC50 class, FRET assay)

T1 sequence (P20393 with tags, fused parts or gaps DEL324-422): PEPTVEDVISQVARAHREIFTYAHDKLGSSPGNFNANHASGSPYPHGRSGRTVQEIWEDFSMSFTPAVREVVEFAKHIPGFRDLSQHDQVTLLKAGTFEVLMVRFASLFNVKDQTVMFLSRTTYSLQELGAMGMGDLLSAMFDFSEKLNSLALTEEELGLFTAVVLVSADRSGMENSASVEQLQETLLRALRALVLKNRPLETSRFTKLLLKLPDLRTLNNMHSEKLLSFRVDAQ
T1 sequence (Q9Y618 2335-2356 partner limits assumed): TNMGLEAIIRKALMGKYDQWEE

| EC50 [1] [µM] | EC50 [2] [µM] | SMILES |
| --- | --- | --- |
| 0.5 to 3 | – | CC(C)Cc1cn(CCN(C)S(=O)(=O)C2CC2)c2ncc(-c3ccncc3)cc12 [Example 126, N-(2-(3-isobutyl-5-(pyridin-4-yl)-1H-pyrrolo[2,3-b]pyridin-1-yl)ethyl)-N-methylcyclopropanesulfonamide] |
| < 0.5 | – | Cc1c(-c2ccccc2C(F)(F)F)ccc2c([C@H](NS(=O)(=O)C3CC3)C(F)(F)F)cn(CC(C)(C)C)c12 [Example 353, (S)—N-(2,2,2-trifluoro-1-(7-methyl-1-neopentyl-6-(2-(trifluoromethyl)phenyl)-1H-indol-3-yl)ethyl)cyclopropanesulfonamide] |
| 0.5 to 3 | – | CC(C)(C)Cn1cc([C@H](NS(=O)(=O)C(C)(C)C)C(F)(F)F)c2cc(F)c(-c3ccccc3C(F)(F)F)cc21 [Example 366, (S)-2-methyl-N-(2,2,2-trifluoro-1-(5-fluoro-1-neopentyl-6-(2-(trifluoromethyl)phenyl)-1H-indol-3-yl)ethyl)propane-2-sulfonamide] |
| – | < 0.5 | CC(C)(C)Cn1cc([C@@H](CF)NS(=O)(=O)C2CCC2)c2ccc(-c3ccccc3C(F)(F)F)cc21 [Example 516, (S)—N-(2-fluoro-1-(1-neopentyl-6-(2-(trifluoromethyl)phenyl)-1H-indol-3-yl)ethyl)cyclobutanesulfonamide] |
| < 0.5 | – | Cc1ccccc1-c1ccc2c(c1)c(CC(C)(C)C)cn2CCNS(=O)(=O)C1CC1 [Example 302, N-(2-(3-neopentyl-5-(o-tolyl)-1H-indol-1-yl)ethyl)cyclopropanesulfonamide] |
| > 3 | – | Cc1noc(C)c1-c1ccc2c(CCNS(=O)(=O)N(C)C)cn(CC(C)C)c2c1 [Compound 64, ({2-[6-(3,5-dimethyl-1,2-oxazol-4-yl)-1-(2-methylpropyl)-1H-indol-3-yl]ethyl}sulfamoyl)dimethylamine] |
| 0.5 to 3 | – | CC(C)Cn1cc([C@@H](NS(=O)(=O)C2CC2)C(F)(F)F)c2ccc(-c3ccccc3C(F)(F)F)cc21 [Example 222, (R)—N-(2,2,2-trifluoro-1-(1-isobutyl-6-(2-(trifluoromethyl)phenyl)-1H-indol-3-yl)ethyl)cyclopropanesulfonamide] |
| < 0.5 | – | CC(C)(C)Cn1cc(CCNS(=O)(=O)C2CC2)c2ccc(-c3ccc(Cl)cc3Cl)cc21 [Example 397, N-(2-(6-(2,4-dichlorophenyl)-1-neopentyl-1H-indol-3-yl)ethyl)cyclopropanesulfonamide] |
| > 3 | – | CC(C)(C)C(=O)n1cc(CNS(=O)(=O)C(F)(F)F)c2cc(F)c(-c3ccncc3Cl)cc21 [Compound 285] |
| – | < 0.5 | CC(C)C(=O)n1cc([C@H](NS(=O)(=O)C2CCC2)C(F)(F)F)c2cc(F)c(-c3ccccc3C(F)(F)F)cc21 [Example 505, (S)—N-(2,2,2-trifluoro-1-(5-fluoro-1-isobutyryl-6-(2-(trifluoromethyl)phenyl)-1H-indol-3-yl)ethyl)cyclobutanesulfonamide] |
| – | > 3 | CC(C)(C)Cn1cc([C@H](NS(=O)(=O)C2CC2)C(=O)O)c2ccc(-c3ccccc3C(F)(F)F)cc21 [Example 431, (S)-2-(cyclopropanesulfonamido)-2-(1-neopentyl-6-(2-(trifluoromethyl)phenyl)-1H-indol-3-yl)acetic acid] |
| < 0.5 | – | CC(C)Cn1cc(CCNS(=O)(=O)C(C)C)c2cc(F)c(-c3ccccc3)cc21 [Compound 261] |
| – | 0.5 to 3 | CC(C)(C)Cn1cc([C@H](NS(=O)(=O)C2CC2)C(F)(F)F)c2cc(F)c(-c3cscn3)cc21 [Example 465, N-[(1S)-1-[1-(2,2-dimethylpropyl)-5-fluoro-6-thiazol-4-yl-indol-3-yl]-2,2,2-trifluoro-ethyl]cyclopropanesulfonamide] |
| 0.5 to 3 | – | CC(C)Cn1cc(CCNS(=O)(=O)N(C)C)c2ccc(C3CCN(C(=O)OC(C)(C)C)CC3)cc21 [Compound 101, tert-butyl 4-(3-{2-[(dimethylsulfamoyl)amino]ethyl}-1-(2-methylpropyl)-1H-indol-6-yl)piperidine-1-carboxylate] |
| 0.5 to 3 | – | CN(C)S(=O)(=O)NCCn1cc(CCC(F)(F)F)c2cc(Br)ccc21 [Example 172, N-{2-[5-bromo-3-(3,3,3-trifluoropropyl)-1H-indol-1-yl]ethyl}-N,N-dimethylsulfuric diamide] |
| 0.5 to 3 | – | CC(C)(C)Cc1cn(CCNS(=O)(=O)C2CC2)c2ccc(-c3ccc(F)cc3C(F)(F)F)c(F)c12 [Example 295] |
| 0.5 to 3 | – | CC(C)Cn1cc(CCN(C)S(=O)(=O)N(C)C)c2ccc(C(F)(F)F)cc21 [Example 121, dimethyl[methyl({2-[1-(2-methylpropyl)-6-(trifluoromethyl)-1H-indol-3-yl]ethyl})sulfamoyl]amine] |
| 0.5 to 3 | – | CC(C)(C)Cc1cn(CCNS(=O)(=O)C2CC2)c2ccc(C(F)(F)F)cc12 [Example 292, N-(2-(3-neopentyl-5-(trifluoromethyl)-1H-indol-1-yl)ethyl)cyclopropanesulfonamide] |

| EC50 [1] [µM] | EC50 [2] [µM] | SMILES |
| --- | --- | --- |
| 0.5 to 3 | – | CC(C)Cn1cc([C@H](NS(=O)(=O)C2CC2)C(F)(F)F)c2ccc(-c3ccc(F)cc3)cc21 [Example 308, (S)—N-(2,2,2-trifluoro-1-(6-(4-fluorophenyl)-1-isobutyl-1H-indol-3-yl)ethyl)cyclopropanesulfonamide] |
| < 0.5 | – | CC(C)Cn1cc([C@H](NS(=O)(=O)C2CC2)C(F)(F)F)c2ccc(-c3ccncc3)cc21 [Example 307, (S)—N-(2,2,2-trifluoro-1-(1-isobutyl-6-(pyridin-4-yl)-1H-indol-3-yl)ethyl)cyclopropanesulfonamide] |
| < 0.5 | – | CCC(C)C(=O)n1cc(CNS(=O)(=O)N(C)C)c2ccc(-c3ccncc3)cc21 (centres unmarked) [Example 188, 1-(3-{[(dimethylsulfamoyl)amino]methyl}-6-(pyridin-4-yl)-1H-indol-1-yl)-2-methylbutan-1-one] |
| < 0.5 | – | CC(C)(C)Cc1cn(CCNS(=O)(=O)C2CC2)c2ccc(-c3ccc(N)c(F)c3Cl)cc12 [Example 229, N-(2-(5-(4-amino-2-chloro-3-fluorophenyl)-3-neopentyl-1H-indol-1-yl)ethyl) cyclo-propanesulfonamide] |
| – | < 0.5 | CC(C)(C)Cn1cc([C@H](NS(=O)(=O)C2CCC2)C(F)(F)F)c2cc(F)c(-c3cccnc3C(F)(F)F)cc21 [Example 528, (S)—N-(2,2,2-trifluoro-1-(5-fluoro-1-neopentyl-6-(2-(trifluoromethyl)pyridin-3-yl)-1H-indol-3-yl)ethyl)cyclobutanesulfonamide] |
| – | 0.5 to 3 | CC(C)(O)Cn1cc([C@H](NS(=O)(=O)C2CCC2)C(F)(F)F)c2cc(F)c(-c3ccccc3C(F)(F)F)cc21 [Example 478, N-[(1S)-2,2,2-trifluoro-1-[5-fluoro-1-(2-hydroxy-2-methyl-propyl)-6-[2-(trifluoromethyl)phenyl]indol-3-yl]ethyl]cyclobutanesulfonamide] |
| 0.5 to 3 | – | CN(C)S(=O)(=O)NCCc1cn(Cc2ccccc2F)c2cc(-c3ccncc3)ccc12 [Example 150, N-{2-[6-(pyridin-4-yl)-1-(2-fluorobenzyl)-1H-indol-3-yl]ethyl}-N,N-dimethylsulfuric diamide] |
| 0.5 to 3 | – | O=S(=O)(NCc1cn(CC(C(F)(F)F)C(F)(F)F)c2cc(-c3ccncc3Cl)c(F)cc12)C1CC1 [Compound 284] |
| < 0.5 | – | CC(C)Cn1cc(CCS(=O)(=O)C(C)C)c2ccc(C3CCCCC3)cc21 [Compound 250] |
| 0.5 to 3 | – | CN(C)S(=O)(=O)NCCc1cn(Cc2ccccn2)c2cc(Br)ccc12 [Example 161, [(2-{6-bromo-1-[(pyridin-2-yl)methyl]-1H-indol-3-yl}ethyl)sulfamoyl]dimethylamine] |
| 0.5 to 3 | – | CC(CO)(CCl)Cn1cc([C@H](NS(=O)(=O)C2CC2)C(F)(F)F)c2cc(F)c(-c3ccccc3C(F)(F)F)cc21 (stereo partly drawn) [Example 404, N-[(1S)-1-[1-[2-(chloromethyl)-3-hydroxy-2-methyl-propyl]-5-fluoro-6-[2-(trifluoromethyl)phenyl]indol-3-yl]-2,2,2-trifluoro-ethyl]cyclopropanesulfonamide] |
| < 0.5 | – | CN(C)S(=O)(=O)NCCn1cc(CC(C)(C)C)c2cc(-c3ccccc3Cl)ccc21 [Example 190, N-{2-[5-(2-chlorophenyl)-3-(2,2-dimethylpropyl)-1H-indol-1-yl]ethyl}-N,N-dimethyl-sulfuric diamide] |
| < 0.5 | – | CC(C)(C)Cn1cc([C@H](NS(=O)(=O)C2CC2)C(F)(F)F)c2ccc(-c3ccccc3Cl)cc21 [Example 332, (S)—N-(1-(6-(2-chlorophenyl)-1-neopentyl-1H-indol-3-yl)-2,2,2-trifluoroethyl)cyclopropanesulfonamide] |
| < 0.5 | – | CC(C)Cn1cc([C@H]2C[C@H]2NS(=O)(=O)C(C)C)c2ccc(-c3ccncc3)cc21 [Compound 258] |
| – | < 0.5 | CC(C)(C)Cn1cc([C@H](NS(=O)(=O)C2CC2)C(F)F)c2ccc(-c3ccccc3C(F)(F)F)c(F)c21 [Example 553, (S)—N-(2,2-difluoro-1-(7-fluoro-1-neopentyl-6-(2-(trifluoromethyl)phenyl)-1H-indol-3-yl)ethyl)cyclopropanesulfonamide] |
| – | < 0.5 | CC1(Cn2cc([C@H](NS(=O)(=O)C3CCC3)C(F)(F)F)c3ccc(-c4ccccc4C(F)(F)F)cc32)CC1 [Example 512, (S)—N-(2,2,2-trifluoro-1-(1-((1-methylcyclopropyl)methyl)-6-(2-(trifluoromethyl)phenyl)-1H-indol-3-yl)ethyl)cyclobutanesulfonamide] |
| < 0.5 | – | Cc1cccc(C#N)c1-c1ccc2c([C@H](NS(=O)(=O)C3CC3)C(F)(F)F)cn(CC(C)(C)C)c2c1 [Example 390, (S)—N-(1-(6-(2-cyano-6-methylphenyl)-1-neopentyl-1H-indol-3-yl)-2,2,2-trifluoroethyl)cyclopropanesulfonamide] |

— patent publication US20230339886A1 (University of Florida Research Foundation, Incorporated, priority 2020, published 2023)
